Measurements published in patent US20260262643A1, “HERBICIDAL BENZOXAZINES” (FMC CORPORATION, priority 2022, published 2026).

Assays:
soybean [1] = assay: Test C preemergence; type: in vivo, Glycine max; details: preemergence, 0 to 100 scale (0 no effect, 100 complete control)
Outline: (§1)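 Seeds in loam–sand blend received preemergence directed soil spray of test chemicals in non-phytotoxic solvent with surfactant; postemergence treatment was applied at one- to two-leaf stage (2–10 cm). After 10 days in greenhouse, injury rated visually versus untreated controls, 0 (no effect) to 100 (complete control).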

barnyardgrass [2] = assay: Test C postemergence; type: in vivo, Echinochloa crusgalli; details: 10 days, 0 to 100 scale (0 no effect, 100 complete control)
Outline: as §1

oat, wild [3] = assay: Test C preemergence; type: in vivo, Avena fatua; details: preemergence, 0 to 100 scale (0 no effect, 100 complete control)
Outline: as §1

wheat [4] = assay: Test C postemergence; type: in vivo, Triticum aestivum; details: 10 days, 0 to 100 scale (0 no effect, 100 complete control)
Outline: as §1

galium = assay: Test C postemergence; type: in vivo, Galium aparine; details: 10 days, 0 to 100 scale (0 no effect, 100 complete control)
Outline: as §1

green foxtail [5] = assay: Test C postemergence; type: in vivo, Setaria viridis; details: 10 days, 0 to 100 scale (0 no effect, 100 complete control)
Outline: as §1

sedge, umbrella = assay: Test D flooded paddy test; type: in vivo, Cyperus difformis; details: 250 g ai/ha, applied to paddy water, visual rating after 13 to 14 days, scale 0 to 100 (0 no effect, 100 complete control)
Outline: (§2)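 Seedlings reached the 2-leaf stage, then pots were flooded to 3 cm over the soil surface. Compound was applied into the water, depth was maintained, and plants stayed in the greenhouse 13 to 14 days before visual scoring (0–100) relative to controls.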

ryegrass, Italian [6] = assay: Test C postemergence; type: in vivo, Lolium multiflorum; details: 10 days, 0 to 100 scale (0 no effect, 100 complete control)
Outline: as §1

kochia [7] = assay: Test C preemergence; type: in vivo, Bassia scoparia; details: preemergence, 0 to 100 scale (0 no effect, 100 complete control)
Outline: as §1

ragweed [8] = assay: Test C postemergence; type: in vivo, Ambrosia artemisiifolia; details: 10 days, 0 to 100 scale (0 no effect, 100 complete control)
Outline: as §1

green foxtail [9] = assay: Test C preemergence; type: in vivo, Setaria viridis; details: preemergence, 0 to 100 scale (0 no effect, 100 complete control)
Outline: as §1

pigweed, palmer [10] = assay: Test C preemergence; type: in vivo, Amaranthus palmeri; details: preemergence, 0 to 100 scale (0 no effect, 100 complete control)
Outline: as §1

barnyardgrass [11] = assay: Test C preemergence; type: in vivo, Echinochloa crusgalli; details: preemergence, 0 to 100 scale (0 no effect, 100 complete control)
Outline: as §1

corn [12] = assay: Test C preemergence; type: in vivo, Zea mays; details: preemergence, 0 to 100 scale (0 no effect, 100 complete control)
Outline: as §1

wheat [13] = assay: Test C preemergence; type: in vivo, Triticum aestivum; details: preemergence, 0 to 100 scale (0 no effect, 100 complete control)
Outline: as §1

corn [14] = assay: Test C postemergence; type: in vivo, Zea mays; details: 10 days, 0 to 100 scale (0 no effect, 100 complete control)
Outline: as §1

blackgrass [15] = assay: Test C postemergence; type: in vivo, Alopecurus myosuroides; details: 10 days, 0 to 100 scale (0 no effect, 100 complete control)
Outline: as §1

rice = assay: Test D flooded paddy test; type: in vivo, Oryza sativa; details: 250 g ai/ha, applied to paddy water, visual rating after 13 to 14 days, scale 0 to 100 (0 no effect, 100 complete control)
Outline: as §2

ryegrass, Italian [16] = assay: Test C preemergence; type: in vivo, Lolium multiflorum; details: preemergence, 0 to 100 scale (0 no effect, 100 complete control)
Outline: as §1

oat, wild [17] = assay: Test C postemergence; type: in vivo, Avena fatua; details: 10 days, 0 to 100 scale (0 no effect, 100 complete control)
Outline: as §1

ragweed [18] = assay: Test C preemergence; type: in vivo, Ambrosia artemisiifolia; details: preemergence, 0 to 100 scale (0 no effect, 100 complete control)
Outline: as §1

soybean [19] = assay: Test C postemergence; type: in vivo, Glycine max; details: 10 days, 0 to 100 scale (0 no effect, 100 complete control)
Outline: as §1

blackgrass [20] = assay: Test C preemergence; type: in vivo, Alopecurus myosuroides; details: preemergence, 0 to 100 scale (0 no effect, 100 complete control)
Outline: as §1

horseweed = assay: Test C postemergence; type: in vivo, Erigeron canadensis; details: 10 days, 0 to 100 scale (0 no effect, 100 complete control)
Outline: as §1

barnyardgrass [21] = assay: Test D flooded paddy test; type: in vivo, Echinochloa crus-galli; details: 250 g ai/ha, applied to paddy water, visual rating after 13 to 14 days, scale 0 to 100 (0 no effect, 100 complete control)
Outline: as §2

kochia [22] = assay: Test C postemergence; type: in vivo, Bassia scoparia; details: 10 days, 0 to 100 scale (0 no effect, 100 complete control)
Outline: as §1

pigweed, palmer [23] = assay: Test C postemergence; type: in vivo, Amaranthus palmeri; details: 10 days, 0 to 100 scale (0 no effect, 100 complete control)
Outline: as §1

ducksalad = assay: Test D flooded paddy test; type: in vivo, Heteranthera limosa; details: 250 g ai/ha, applied to paddy water, visual rating after 13 to 14 days, scale 0 to 100 (0 no effect, 100 complete control)
Outline: as §2

Cc1cccc2c1OC(C(F)(F)F)CN2C(=O)c1cccc(-n2cnc(C(C)C)n2)c1 (racemic) [Compound 301]
Soybean plant response rating (soybean [1]; 500 g ai/ha): 100 | Soybean plant response rating (soybean [1]; Test C, 125 g ai/ha): 10 | Plant response rating, Barnyardgrass (barnyardgrass [2]; 500 g ai/ha, postemergence): 40 | Plant response rating, Barnyardgrass (barnyardgrass [2]; Postemergence, 125 g ai/ha): 10 | Oat, Wild plant response rating (oat, wild [3]; 500 g ai/ha): 90 | Oat, Wild plant response rating (oat, wild [3]; Test C, 125 g ai/ha): 70 | Plant response rating, Wheat (wheat [4]; 500 g ai/ha, postemergence): 50 | Plant response rating, Wheat (wheat [4]; Postemergence, 125 g ai/ha): 20 | Plant response rating, Galium (galium; 500 g ai/ha, postemergence): 100 | Plant response rating, Galium (galium; Postemergence, 125 g ai/ha): 100 | Plant response rating, Foxtail, Green (green foxtail [5]; 500 g ai/ha, postemergence): 70 | Plant response rating, Foxtail, Green (green foxtail [5]; Postemergence, 125 g ai/ha): 10 | Plant response rating, Sedge, Umbrella (Flood) (sedge, umbrella): 85 | Plant response rating, Ryegrass, Italian (ryegrass, Italian [6]; 500 g ai/ha, postemergence): 80 | Plant response rating, Ryegrass, Italian (ryegrass, Italian [6]; Postemergence, 125 g ai/ha): 70 | Kochia plant response rating (kochia [7]; 500 g ai/ha): 90 | Kochia plant response rating (kochia [7]; Test C, 125 g ai/ha): 80 | Plant response rating, Ragweed (ragweed [8]; 500 g ai/ha, postemergence): 60 | Plant response rating, Ragweed (ragweed [8]; Postemergence, 125 g ai/ha): 30 | Foxtail, Green plant response rating (green foxtail [9]; 500 g ai/ha): 100 | Foxtail, Green plant response rating (green foxtail [9]; Test C, 125 g ai/ha): 100 | Pigweed, Palmer plant response rating (pigweed, palmer [10]; 500 g ai/ha): 100 | Pigweed, Palmer plant response rating (pigweed, palmer [10]; Test C, 125 g ai/ha): 90 | Barnyardgrass plant response rating (barnyardgrass [11]; 500 g ai/ha): 90 | Barnyardgrass plant response rating (barnyardgrass [11]; Test C, 125 g ai/ha): 50 | Corn plant response rating (corn [12]; 500 g ai/ha): 0 | Corn plant response rating (corn [12]; Test C, 125 g ai/ha): 0 | Wheat plant response rating (wheat [13]; 500 g ai/ha): 90 | Wheat plant response rating (wheat [13]; Test C, 125 g ai/ha): 40 | Plant response rating, Corn (corn [14]; 500 g ai/ha, postemergence): 80 | Plant response rating, Corn (corn [14]; Postemergence, 125 g ai/ha): 10 | Plant response rating, Blackgrass (blackgrass [15]; 500 g ai/ha, postemergence): 100 | Plant response rating, Blackgrass (blackgrass [15]; Postemergence, 125 g ai/ha): 90 | Plant response rating, Rice (Flood) (rice): 15 | Ryegrass, Italian plant response rating (ryegrass, Italian [16]; 500 g ai/ha): 100 | Ryegrass, Italian plant response rating (ryegrass, Italian [16]; Test C, 125 g ai/ha): 100 | Plant response rating, Oat, Wild (oat, wild [17]; 500 g ai/ha, postemergence): 50 | Plant response rating, Oat, Wild (oat, wild [17]; Postemergence, 125 g ai/ha): 20 | Ragweed plant response rating (ragweed [18]; 500 g ai/ha): 50 | Ragweed plant response rating (ragweed [18]; Test C, 125 g ai/ha): 0 | Plant response rating, Soybean (soybean [19]; 500 g ai/ha, postemergence): 100 | Plant response rating, Soybean (soybean [19]; Postemergence, 125 g ai/ha): 100 | Blackgrass plant response rating (blackgrass [20]; 500 g ai/ha): 100 | Blackgrass plant response rating (blackgrass [20]; Test C, 125 g ai/ha): 90 | Plant response rating, Horseweed (horseweed; 500 g ai/ha, postemergence): 0 | Plant response rating, Horseweed (horseweed; Postemergence, 125 g ai/ha): 20 | Plant response rating, Barnyardgrass (Flood) (barnyardgrass [21]): 20 | Plant response rating, Kochia (kochia [22]; 500 g ai/ha, postemergence): 80 | Plant response rating, Kochia (kochia [22]; Postemergence, 125 g ai/ha): 50 | Plant response rating, Pigweed, Palmer (pigweed, palmer [23]; 500 g ai/ha, postemergence): 60 | Plant response rating, Pigweed, Palmer (pigweed, palmer [23]; Postemergence, 125 g ai/ha): 10 | Plant response rating, Ducksalad (Flood) (ducksalad): 55
